# Source: patent US20220256848A1, “NEO-BAVAISOFLAVONE AND COMPOSITIONS THEREOF AND THEIR USE AS PESTICIDES” (priority 2019, published 2022)
# Marks after values point to notes of the source that are not given here.
# How the values were obtained:
# Puccinia sorghi [1] = format: cell-based
# Phytophthora infestans = format: cell-based; conditions: activity grade x repeats /12 x100
# Botrytis cinerea = assay: In-vitro screening against Botrytis cinerea; format: cell-based; conditions: grade x repeats x days of activity /168 x100
# From the text: (§1) The bioactivity values are in % and reflect the potential of eradicating the target pests.
# c. Botrytis cinerea—activity grade (1/2/3) X repeats# X days of activity/168 (maximal value 3×4×14=168)*100
# Rhizoctonia solani = assay: Microplate hyphae growth assay against Rhizoctonia solani; format: cell-based; conditions: grade x repeats x days of activity /252 x100
# Protocol: Summary: Diluted purified neo-bavaisoflavone was added to microplate wells and mixed with 50 ul of hyphae suspension and growth of the fungus, starting from blended hyphae, was monitored by plate reader and visual inspection.
# 2) Add 50 ul of hyphae suspension to the wells of the microplate using a multi-pipette, mix the spore suspension vigorously by hand and decant amount needed for one plate (5 ml) to keep the hyphae well suspended
# (§2) 4) Shake the plate for 10 min at 2000 RPM to mix the neo-bavaisoflavone with the hyphae suspension
# (§3) 7) Read the plate using the plate reader
# (§4) 9) Insert collected plates to a plastic box with cloth cover and put the box in the incubator at 27° C.
# 1) Screen plate at 3 more dates: 3d, 7d, 14d and 21d following the assay start
# 2) Calculate the difference of absorbance between each screen and the read at zero time
# (§5) 3) Calculate the percentage of growth inhibition of each well at each time point. Use the results of the DMSO treatment of the control plate as 100% growth
# as §1
# (§6) b. Pseudomonas syringae, Rhizoctonia solani, Fusarium oxysporum, Pythium aphanidermatum—activity grade (1/2/3) X repeats# X days of activity/252 (maximal value 3×4×21=252)*100
# Pythium aphanidermatum = assay: Microplate zoospore growth assay against Pythium aphanidermatum; format: cell-based; conditions: grade x repeats x days of activity /252 x100
# Protocol: Summary: Diluted purified neo-bavaisoflavone was added to microplate wells and mixed with 50 ul of zoospores in PDBC suspension and the growth of the fungus, starting from zoospores, was monitored by plate reader and visual inspection
# 2) Add 50 ul of zoospore suspension inoculum to the wells of the microplate using a multi-pipette. Mix the spore suspension vigorously by hand and decant amount needed for one plate (5 ml) to keep the zoospores well suspended
# as §2, §3, §4
# 1) Read out the plate at 3 more dates: 3d, 7d, 14d and 21d following the assay start
# 2) Calculate the difference of absorbance between each readout and the readout at zero time
# as §5
# 4) Prepare a table of the results of hits that were repeated in all 4 repeats. Set a column for each time point.
# as §1
# b. […]
# Fusarium oxysporum = assay: In-vitro screening against Fusarium oxysporum; format: cell-based; conditions: grade x repeats x days of activity /252 x100
# From the text: as §1, §6
# Sclerotinia sclerotiorum = assay: Microplate hyphae growth assay against Sclerotinia sclerotiorum; format: cell-based
# Protocol: Summary: Diluted purified neo-bavaisoflavone was added to microplate wells and mixed with 50 ul of hyphae suspension and growth of the fungus starting from blended hyphae was monitored by visual inspection.
# Background: Sclerotinia sclerotiorum is a fungus of belonging to the Ascomycetes and it is a soil borne pathogen. It is difficult to produce large amounts of spores of Sclerotinia sclerotiorum, that led to decision to use hyphae in this screening rather than spores for inoculation.
# 2) Add 50 ul of hyphae suspension to the wells of the microplate, mix the spore suspension vigorously by hand and decant amount needed for one plate (5 ml) to keep the hyphae well suspended
# as §2
# 7) Insert microplates into a plastic box and put the box in the incubator at 21° C.
# 1) Screen plate at […]: 4, 7, 14 and 21 days after inoculation
# 2) Use a lamp for visual assessment of compounds effect on fungal growth overtime
# 4) Compare the hyphal growth of each well to the hyphal growth of the control plate wells (Wells containing active fungicides or 0.5% DMSO solution)
# 5) Write the results on a special form: clear well=3 (no growth of hyphae), normal hyphal structure=1 (normal growth), inconclusive=2 (solid structure of unexpected type, or partial cover of the area) […]
# [2] = system: Pectobacterium carotovorum; assay: In-vitro screening against Pectobacterium carotovorum; format: cell-based; conditions: grade x repeats x days of activity /84 x100
# From the text: as §1
# d. Pectobacterium carotovorum—activity grade (1/2/3) X repeats# X days of activity/84 (maximal value 3×4×7=[…])*100
# Pseudomonas syringae = assay: Microplate bacterial growth assay against Pseudomonas syringae; format: cell-based; conditions: grade x repeats x days of activity /252 x100
# Protocol: Summary: Diluted purified neo-bavaisoflavone was added to microplate wells and mixed with […] of frozen bacteria suspension and growth of the bacteria was monitored by visual inspection.
# Background: Pseudomonas is a rod-shaped Gram-negative bacterium. Frozen bacteria stock of 60% glycerol was used as an inoculum for the screening experiment.
# 1) Take a plate with Neo-bavaisoflavone (10 ul) from the −20° C. freezer and thaw it on the bench for at least 20 min
# 2) Add 80 ul of bacteria suspension with growth medium to each well of the microplate using a multi-pipette
# 4) Shake the plate for 10 min at 2000 RPM to mix the Neo-bavaisoflavone with the bacteria suspension
# 6) Insert the plates to a plastic box with cover and put the box in the incubator at 28° C.
# 1) Screen the microplate at 5 dates: 3, 5, 7, 14 and 21 days after inoculation
# 2) Use a lamp to visually evaluate the bacterial growth
# 3) Prepare plates for screening: shake plate at 2000 RPM for 2 min to suspend the bacteria and then centrifuge plate at 1000 RCF for a few seconds
# 5) Compare the transparency of each well to the transparency of the control wells (wells containing control bactericide or 0.5% DMSO solution)
# Write the results on a special form: clear=3 (no growth of bacteria), turbid=1(normal bacterial growth), inconclusive=2 (very low turbidity compared to growth in 0.5% DMSO solution) […]
# Mizus Persicae = assay: In-vitro screening matrix, Mizus Persicae
# From the text: as §1
# Spodoptera litoralis = assay: In-vitro screening matrix, Spodoptera litoralis
# From the text: as §1
# Puccinia sorghi [3] = assay: Puccinia infection of corn seedlings test (growth room); format: in vivo; conditions: corn plants, five independent growth room experiments
# From the text: FIGS. 1-5 show effect of neo-bavaisoflavone (NBI) on corn leaf infection by Puccinia sorghi in five independent experiments, determined as leaf % covered by the fungus. *—p-value <0.05, **—p-value is <0.01, *** —p-value is <0.001. Signum—A reference fungicide containing 26.7% w/w boscalid and 6.7% w/w pyraclostrobin (BASF®). Fl, Formulation 1; F2, Formulation 2—see Example 5. ppm—parts per million.
# In order to assist the compound dissolution to final working concentration and its spread over the sprayed surface first dry weighed Neo-bavaisoflavone was dissolved in dimethyl-sulfoxide solvent with 1:9 ratio and then brought up to the final volume used for the validation with double distilled water. Before spraying, non-ionic detergent tween 20 was added to final concentration of 0.05%.
# In order to assist the compound dissolution to final working concentration and its spread over the sprayed surface first dry weighed Neo-bavaisoflavone was dissolved in absolute ethanol with 1:8 ratio, sonicated for 5 mins and then another part of non-ionic detergent tween 20 was added for formulation finalization. Before spraying, additional amount of 0.05% tween 20 was added (disregarding amount of tween 20 added before).
# Protocol name: Puccinia infection of corn seedlings test
# General description: inoculation on corn, collection, preparation of spore suspension and material activity study, of Puccinia sorghi.
# • Use 8 days old seedlings prepared as explained above • Prepare treatment for spraying—about 1 ml for each plant • Add Tween 20 up to 0.05% to the treatments • Spray treatment on to the leaves till full saturation (use a spray bottle) and let dry in the growth room • Repeat spray on the second day and let dry • On the second day (after about 4 hours from the treatment spray) inoculate plants using the Puccinia spore suspension • Use spraying bottle to spray about 1 ml (till full saturation) of the spore suspension on to the leaves of 9 days old corn seedlings • Put the pots with the inoculated seedlings in a dark moist chamber with heated water at the bottom. […]
# Puccinia triticina = Puccinia triticina infected wheat, growth room under controlled temperature; format: in vivo; conditions: 200 ppm
# From the text: Mean of 3 independent replicates is presented. ** means that p-value is <0.01. Formulation 1 see “Formulation preparation for in-planta validation” below.
# We conducted 3 independent experiments in greenhouse where we estimated neo-bavaisoflavone's (NBI) potential to prevent and control Puccinia triticina in wheat plants (FIG. 6). Each bar in FIG. 6 represents average of four replicates per treatment. Neo-bavaisoflavone controlled the leaf rust with the following efficacies: between 30% to 50% at 200 ppm and between 30% to 40% at 400 ppm. One additional experiment was conducted under controlled temperature in growth room conditions (FIG. 7) where neo-bavaisoflavone controlled the wheat leaf rust with the efficacy up to 40% at 200 ppm.
# [4] = system: Puccinia stritiformis (yellow rust); assay: Field validation in wheat, yellow rust leaf infection intensity (curative); format: in vivo; conditions: wheat field experiments
# [5] = system: Puccinia stritiformis (yellow rust); assay: Uredospores of yellow rust in pustules on field-treated wheat leaves (experiment 108); format: in vivo
# [6] = Day 0 after field treatment, ±SE, experiment 108
# [7] = Day 7 after field treatment, only one case, no replicates
structure (smiles),measurement,setting,value
CC(C)=CCc1cc(-c2coc3cc(O)ccc3c2=O)ccc1O [Neo-bavaisoflavone],Relative Activity value (%),Puccinia sorghi [1],75%
same,Relative Activity value (%),Phytophthora infestans,0%
same,Relative Activity value (%),Botrytis cinerea,0%
same,Relative Activity value (%),Rhizoctonia solani,75%
same,Relative Activity value (%),Pythium aphanidermatum,75%
same,Relative Activity value (%),Fusarium oxysporum,0%
same,Relative Activity value (%),Sclerotinia sclerotiorum,17%
same,Relative Activity value (%),[2],0%
same,Relative Activity value (%),Pseudomonas syringae,100%
same,Relative Activity value (%),Mizus Persicae,0%
same,Relative Activity value (%),Spodoptera litoralis,0%
same,average efficacy in preventing and controlling Puccinia sorghi,Puccinia sorghi [3]; 200 ppm,87.39%
same,average efficacy in preventing and controlling Puccinia sorghi,Puccinia sorghi [3]; 400 ppm,91.94%
same,average efficacy in preventing and controlling Puccinia sorghi,Puccinia sorghi [3]; 800 ppm,94.07%
same,efficacy of wheat leaf rust control,Puccinia triticina,up to 40%
same,relative leaf area covered by the fungi,[4],significantly reduced
same,Collapsed spores (Percent),[5]; [6],36.8 ± 13.03%
same,Number of collapsed spores (No./pustule),[5]; [6],4.8 ± 2.03 No./pustule
same,Number of uredospores/pustule,[5]; [6],14.8 ± 3.37 No.
same,Collapsed spores (Percent),[5]; [7],1.9%
same,Number of collapsed spores (No./pustule),[5]; [7],0.8 No./pustule
same,Number of uredospores/pustule,[5]; [7],6.5* No.
